The source of these data is US12617783B2, “Heterocyclic GLP-1R agonists” (BIOMEA FUSION, INC., priority 2024, dated 2026).

One series in a line: in vivo. The settings on record: male, cynomolgus monkey.
Series [1] in a line: Pharmacokinetic analysis in male SD rats. The series is classed as in vivo. To be noted: for Oral F: 5.0 mg/kg po vs 1.0 mg/kg iv; for AUC(0-inf) / clearance / half-life / Vd / Cmax / Tmax: Sprague-Dawley (SD), rat, plasma; for Vd: read-out: Vdss; for exposure compared with Orforglipron: same doses (iv 1 mg/kg and po 5 mg/kg). As to the method:
The rats have free access to food and water. Blood samples were collected pre-dose and 0.083, 0.25, 0.5, 1, 2, 4, 8, 24 hours post dose for i.v. administration group. Blood samples were also collected pre-dose and 0.25, 0.5, 1, 2, 4, 8, and 24 hours after administration in orally dosing group.

A further series concerns the target T1, human GLP-1R (Homo sapiens, UniProt P43220).
T1 construct: host or cells: HEK293
In words: GLP-1R cAMP assay (Example B1a, HTRF, 30 min at room temperature). The class given is cell-based. The settings on record: for EC50 Ratio: potency ratio of stereoisomer pair (less potent / more potent isomer). Summed up:
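Competitive HTRF read-out of cAMP after 30 min room-temperature stimulation, BETP absent, of human GLP-1R-HEK293 cells (1,000/well) in HEPES buffer with 500 μM IBMX and 0.1% BSA. Activation normalised to GLP-1(7-37) positive control. EC50 from 4-parameter non-linear regression.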
On the technique in general: cAMP levels reflect the balance of adenylyl cyclase and phosphodiesterase activity.

For series [2] the following is noted: male, cynomolgus monkey, in vivo.
Procedure: (§1) Pharmacokinetic Analysis of the Compound 36, Compound 121, Compound 214, and Orforglipron in Cynomolgus Monkeys
(§2) Non naïve male cynomolgus monkeys (n=3 monkeys/group) were fasted overnight and fed 4 hours post dose. Compounds of the present application were formulated in 10% polyethylene glycol 400/10% propylene glycol/80% glycine buffer (100 mM glycine, 64 mM NaOH, pH 10).
(§3) The compound was administered by i.v. infusion for 30 minutes at 0.12 mg/kg (dose volume 1 mL/kg at a speed of 2 mL/kg/h) or orally doses of 0.36 mg/kg. Blood samples were collected pre-dose and 0.25, 0.5 (just before the infusion is stopped), 0.75, 1, 1.5, 2.5, 4, 8, 16, 24 hr post dose for i.v. administration group. Blood samples were also collected pre-dose, 0.5, 1, 2, 3, 4, 8, 16 and 24 hr after administration in orally dosing group.
The test system of series [3] is islets from a non-diabetic donor. Nature of the series: Glucose-stimulated insulin secretion (GSIS) in non-diabetic donor islets cultured ex vivo. The settings on record: compared with orforglipron or DMSO. The series is classed as cell-based. As to the method: Donor islets cultured ex vivo were assayed for GSIS in the presence of compound 36 (cpd 36), orforglipron or DMSO. Basal insulin secretion, stimulated insulin secretion and secretion index were measured.
Donor islets cultured ex vivo were assayed for GSIS in the presence of compound 214, orforglipron or DMSO. Basal insulin secretion, stimulated insulin secretion and secretion index were measured.

Series [4] is described as follows: Pharmacokinetic analysis in cynomolgus monkeys.
Procedure: as §1, §2, §3
Setting [5] is: Table 1d, stereoisomer pairs, read-out: EC50.
Setting [6] is: cAMP accumulation in HEK293 expressing human GLP-1R, no BETP, 30 min room temperature (Method B1a, compounds ID 1-609), Table 1, read-out: EC50.
The mark [7] stands for this setting: text to Table 1d, bridge atoms configured into the plane or away from the reader, read-out: potency (EC50).
Setting [8] is: male, cynomolgus monkey, plasma, iv, 0.12 mg/kg.
The mark [9] stands for this setting: male, cynomolgus monkey, plasma, po, 0.36 mg/kg.

pEC50: −log10 of the molar value. Read-outs that look alike come from different tables or passages of the source.

T1 sequence (P43220 24-463): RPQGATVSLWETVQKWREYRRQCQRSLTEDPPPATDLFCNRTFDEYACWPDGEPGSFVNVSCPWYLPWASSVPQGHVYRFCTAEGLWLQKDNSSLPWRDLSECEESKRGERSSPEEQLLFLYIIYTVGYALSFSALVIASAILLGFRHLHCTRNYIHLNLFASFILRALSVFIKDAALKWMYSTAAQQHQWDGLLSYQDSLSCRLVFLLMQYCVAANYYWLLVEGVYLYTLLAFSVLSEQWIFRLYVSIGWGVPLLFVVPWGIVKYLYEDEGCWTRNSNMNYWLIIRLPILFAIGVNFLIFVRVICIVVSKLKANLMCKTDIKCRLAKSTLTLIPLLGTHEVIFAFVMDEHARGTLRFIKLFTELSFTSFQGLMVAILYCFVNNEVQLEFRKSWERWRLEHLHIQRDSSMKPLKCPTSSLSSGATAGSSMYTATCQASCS
Procedure for in vivo: as §1, §2, §3

Turning to `Cc1cc(-n2nc3c(c2-n2ccn(-c4ccc5c(cnn5C)c4F)c2=O)[C@@H]2COC[C@H](C3)N2C(=O)c2cc3cc([C@H]4CCOC(C)(C)C4)ccc3n2[C@@]2(c3noc(=O)[nH]3)C[C@@H]2C)cc(C)c1F` [Compound 121, 3-((1S,2S)-1-(5-((S)-2,2-dimethyltetrahydro-2H-pyran-4-yl)-2-((4R,8S)-3-(3-(4-fluoro-1-methyl-1H-indazol-5-yl)-2-oxo-2,3-dihydro-1H-imidazol-1-yl)-2-(4-fluoro-3,5-dimethylphenyl)-2,4,5,7,8,9-hexahydro-4,8-epiminooxocino [5,4-c]pyrazole-10-carbonyl)-1H-indol-1-yl)-2-methylcyclopropyl)-1,2,4-oxadiazol-5 (4H)-one], the total exposure AUC(0-inf) (as a rule, total exposure, with the tail of the curve extrapolated) is 0.182 µg·h/mL in “in vivo” (iv, 0.12 mg/kg); 0.121 µg·h/mL in the series “in vivo” (po, 0.36 mg/kg); 3.33 µg·h/mL in series [1] (1.0 mg/kg iv); 9.12 µg·h/mL in series [1] (5.0 mg/kg po). The Vd in “in vivo” (iv, 0.12 mg/kg) was 1.66 L/kg; in series [1] (1.0 mg/kg iv), 1.24 L/kg. Further, the clearance (in general, the rate of elimination divided by the concentration) in “in vivo” (iv, 0.12 mg/kg) was 0.681 L/h/kg; in series [1] (1.0 mg/kg iv), 0.301 L/h/kg. The half-life (usually the time in which the quantity being followed falls by half) in the series “in vivo” (iv, 0.12 mg/kg) was 2.26 h; in “in vivo” (po, 0.36 mg/kg), 1.94 h; in series [1] (1.0 mg/kg iv), 3.14 h; in series [1] (5.0 mg/kg po), 3.47 h. Moreover, the maximum concentration (Cmax) (commonly the peak of the concentration-time curve) in “in vivo” (po, 0.36 mg/kg) stood at 0.028 µg/mL; in series [1] (5.0 mg/kg po), 0.923 µg/mL. Also, the Tmax – broadly, the time at which the peak concentration occurs – in “in vivo” (po, 0.36 mg/kg) was found to be 2 h; in series [1] (5.0 mg/kg po), 3.33 h. For the same compound, the “Oral F” value turned out to be 54.7% in series [1] and 22.2% in series [2]. The “exposure compared with Orforglipron” value in series [1] is reported as “significant higher exposure”. Also, the “EC50 Ratio” value on human GLP-1R (Table 1d) was greater than 122. For the same compound, the results for the pEC50 at human GLP-1R (setting [5]), on human GLP-1R (setting [6]) and on human GLP-1R (setting [7]) were 7.09, 7.09 and greater than 6.00, respectively.

`Cc1cc(-n2nc3c(c2-n2ccn(-c4ccc5c(cnn5C)c4F)c2=O)[C@@H]2CC[C@H](C3)N2C(=O)c2cc3cc([C@H]4CCOC5(CC5)C4)ccc3n2[C@@]2(c3noc(=O)[nH]3)C[C@@H]2C)cc(C)c1F` [Compound 214, 3-((1S,2S)-1-(2-((4S,7R)-3-(3-(4-fluoro-1-methyl-1H-indazol-5-yl)-2-oxo-2,3-dihydro-1H-imidazol-1-yl)-2-(4-fluoro-3,5-dimethylphenyl)-2,4,5,6,7,8-hexahydro-4,7-epiminocyclohepta [c]pyrazole-9-carbonyl)-5-((S)-4-oxaspiro[2.5]octan-7-yl)-1H-indol-1-yl)-2-methylcyclopropyl)-1,2,4-oxadiazol-5 (4H)-one]: the AUC(0-inf) in “in vivo” (iv, 0.12 mg/kg) was 0.619 µg·h/mL; in the series “in vivo” (po, 0.36 mg/kg), 1 µg·h/mL; in series [1] (1.0 mg/kg iv), 4.64 µg·h/mL; in series [1] (5.0 mg/kg po), 7.51 µg·h/mL. For the same compound, the Vd was 0.77 L/kg in “in vivo” (iv, 0.12 mg/kg) and 1.08 L/kg in series [1] (1.0 mg/kg iv). In addition, the clearance was 0.204 L/h/kg in “in vivo” (iv, 0.12 mg/kg) and 0.221 L/h/kg in series [1] (1.0 mg/kg iv). In addition, the half-life in “in vivo” (iv, 0.12 mg/kg) was 3.66 h; in the series “in vivo” (po, 0.36 mg/kg), 3.56 h; in series [1] (1.0 mg/kg iv), 4.83 h; in series [1] (5.0 mg/kg po), 5.14 h. Further, the maximum concentration (Cmax) in “in vivo” (po, 0.36 mg/kg) is 0.149 µg/mL; in series [1] (5.0 mg/kg po), 0.64 µg/mL. The time to peak (Tmax) was determined as 2 h in the series “in vivo” (po, 0.36 mg/kg) and 2.67 h in series [1] (5.0 mg/kg po). In addition, the “Oral F” value in series [1] was 32.6%; in series [2], 54.0%. For the same compound, the “exposure compared with Orforglipron” value in series [1] is listed as “significant higher exposure”. Also, the “EC50 Ratio” value on human GLP-1R (Table 1d) was greater than 13. Moreover, the pEC50 (usually the negative decadic logarithm of the EC50, by convention in mol/L) at human GLP-1R (setting [5]) was 7.28; on human GLP-1R (setting [6]) it was 7.28; at human GLP-1R (setting [7]) it was greater than 6.00. Also, the “glucose-stimulated insulin secretion in islets from a non-diabetic donor” value in series [3] is given as “increases in glucose-stimulated insulin secretion”.

Take `Cc1cc(-n2nc3c(c2-n2ccn(-c4ccc5c(cnn5C)c4F)c2=O)[C@H](C)N(C(=O)c2cc4cc([C@H]5CCOC(C)(C)C5)ccc4n2[C@@]2(c4noc(=O)[nH]4)C[C@@H]2C)CC3)cc(C)c1F` [Orforglipron, orforglipron, reference compound]: the “Oral F” value in series [1] turned out to be 11.2%. Further, in series [1] (1.0 mg/kg iv), the AUC(0-inf) amounted to 6.84 µg·h/mL, the clearance is 0.148 L/h/kg, the half-life is 8.13 h and the Vd amounted to 1.42 L/kg. Besides, in series [1] (5.0 mg/kg po), the AUC(0-inf) was 3.42 µg·h/mL, the Cmax worked out at 0.24 µg/mL, the Tmax came out at 4 h and the half-life is 7.44 h. In addition, the “Oral F” value in series [4] (cynomolgus monkeys, 0.36 mg/kg po vs 0.12 mg/kg iv) is recorded as 29.4%. In series [4] (setting [8]), this compound gave an AUC(0-inf) of 0.517 µg·h/mL, a Vd of 0.846 L/kg, a clearance of 0.239 L/h/kg and a half-life of 3.7 h. Moreover, in series [4] (setting [9]), the AUC(0-inf) stood at 0.456 µg·h/mL, the highest level (Cmax) was 0.0795 µg/mL, the Tmax was 1.33 h and the half-life was 4.24 h.
